Activity calls are given as the source filed them.
Columns and labels:
[1] = target: T1, ATP-dependent RNA helicase DHX30 (Homo sapiens, UniProt Q7L2E3)
T1 sequence (Q7L2E3 whole entry): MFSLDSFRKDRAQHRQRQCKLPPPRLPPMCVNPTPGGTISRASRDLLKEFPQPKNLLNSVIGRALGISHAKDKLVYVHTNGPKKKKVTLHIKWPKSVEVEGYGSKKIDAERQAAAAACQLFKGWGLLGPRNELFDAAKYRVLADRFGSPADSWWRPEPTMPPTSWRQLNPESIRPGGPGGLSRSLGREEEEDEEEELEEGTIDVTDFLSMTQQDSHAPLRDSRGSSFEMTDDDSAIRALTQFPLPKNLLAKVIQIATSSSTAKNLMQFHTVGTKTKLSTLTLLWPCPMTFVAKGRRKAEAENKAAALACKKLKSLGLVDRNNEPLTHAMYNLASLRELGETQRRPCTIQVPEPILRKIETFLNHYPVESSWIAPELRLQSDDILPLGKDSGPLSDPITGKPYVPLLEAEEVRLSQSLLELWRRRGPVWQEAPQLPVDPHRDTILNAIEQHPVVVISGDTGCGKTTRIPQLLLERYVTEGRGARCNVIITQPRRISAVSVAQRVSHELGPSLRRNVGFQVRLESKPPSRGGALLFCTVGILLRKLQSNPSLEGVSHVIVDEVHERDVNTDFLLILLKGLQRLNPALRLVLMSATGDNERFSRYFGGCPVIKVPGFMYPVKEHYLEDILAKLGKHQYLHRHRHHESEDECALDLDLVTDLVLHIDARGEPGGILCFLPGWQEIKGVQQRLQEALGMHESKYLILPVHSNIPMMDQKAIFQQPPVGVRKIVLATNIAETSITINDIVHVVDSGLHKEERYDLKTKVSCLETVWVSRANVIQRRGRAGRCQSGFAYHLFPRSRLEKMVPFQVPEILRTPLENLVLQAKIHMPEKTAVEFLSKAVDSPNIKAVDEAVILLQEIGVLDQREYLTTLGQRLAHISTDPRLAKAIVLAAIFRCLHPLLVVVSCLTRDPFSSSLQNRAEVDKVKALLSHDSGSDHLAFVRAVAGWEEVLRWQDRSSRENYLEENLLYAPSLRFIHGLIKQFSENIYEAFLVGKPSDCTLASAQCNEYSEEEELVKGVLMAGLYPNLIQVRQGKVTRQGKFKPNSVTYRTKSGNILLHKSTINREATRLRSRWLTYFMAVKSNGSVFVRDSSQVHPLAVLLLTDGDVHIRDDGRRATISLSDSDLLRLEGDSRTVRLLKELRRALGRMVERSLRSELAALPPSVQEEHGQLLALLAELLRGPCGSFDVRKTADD

[2] = target: High affinity nerve growth factor receptor (Homo sapiens, UniProt P04629)
High affinity nerve growth factor receptor, sequence (P04629 whole entry): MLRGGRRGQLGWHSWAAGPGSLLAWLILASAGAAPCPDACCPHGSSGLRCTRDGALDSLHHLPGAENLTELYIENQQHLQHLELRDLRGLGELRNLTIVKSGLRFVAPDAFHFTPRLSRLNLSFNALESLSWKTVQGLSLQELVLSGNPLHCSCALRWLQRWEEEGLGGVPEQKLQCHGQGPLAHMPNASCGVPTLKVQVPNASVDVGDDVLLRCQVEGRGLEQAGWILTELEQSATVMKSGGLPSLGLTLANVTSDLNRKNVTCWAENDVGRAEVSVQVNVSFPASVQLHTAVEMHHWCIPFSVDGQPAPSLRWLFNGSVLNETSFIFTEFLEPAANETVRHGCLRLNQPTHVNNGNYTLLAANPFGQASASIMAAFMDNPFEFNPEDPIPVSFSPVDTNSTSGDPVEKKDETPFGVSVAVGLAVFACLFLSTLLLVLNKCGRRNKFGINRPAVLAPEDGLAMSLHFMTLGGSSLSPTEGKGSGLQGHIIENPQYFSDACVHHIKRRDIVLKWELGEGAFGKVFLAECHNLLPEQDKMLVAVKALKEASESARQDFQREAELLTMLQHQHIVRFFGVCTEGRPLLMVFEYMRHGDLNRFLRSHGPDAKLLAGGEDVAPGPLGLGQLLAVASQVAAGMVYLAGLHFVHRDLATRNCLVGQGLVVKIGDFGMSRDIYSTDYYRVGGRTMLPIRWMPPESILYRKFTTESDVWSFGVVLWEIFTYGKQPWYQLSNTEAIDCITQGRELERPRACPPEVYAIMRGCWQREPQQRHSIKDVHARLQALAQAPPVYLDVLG

[3] = target: Serine/threonine-protein kinase PAK 6 (Homo sapiens, UniProt Q9NQU5)
Serine/threonine-protein kinase PAK 6, sequence (Q9NQU5 whole entry): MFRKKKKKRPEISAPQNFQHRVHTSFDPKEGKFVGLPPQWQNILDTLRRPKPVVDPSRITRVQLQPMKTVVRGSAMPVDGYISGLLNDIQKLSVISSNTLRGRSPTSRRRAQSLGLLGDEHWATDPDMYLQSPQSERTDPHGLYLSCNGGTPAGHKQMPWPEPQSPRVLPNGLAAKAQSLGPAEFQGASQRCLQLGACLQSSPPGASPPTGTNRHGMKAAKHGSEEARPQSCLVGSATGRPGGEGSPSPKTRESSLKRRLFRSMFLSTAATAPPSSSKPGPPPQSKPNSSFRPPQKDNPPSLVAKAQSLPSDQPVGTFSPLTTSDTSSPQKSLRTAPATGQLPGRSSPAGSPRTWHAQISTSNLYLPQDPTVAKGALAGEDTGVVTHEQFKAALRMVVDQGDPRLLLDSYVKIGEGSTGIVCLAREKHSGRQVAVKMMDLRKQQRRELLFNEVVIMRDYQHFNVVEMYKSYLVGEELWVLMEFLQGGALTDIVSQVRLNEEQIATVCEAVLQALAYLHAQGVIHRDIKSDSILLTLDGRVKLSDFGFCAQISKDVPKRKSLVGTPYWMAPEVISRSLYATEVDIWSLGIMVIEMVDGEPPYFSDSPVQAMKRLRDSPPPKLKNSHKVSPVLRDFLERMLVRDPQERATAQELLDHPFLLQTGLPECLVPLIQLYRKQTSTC

[4] = target: T2, Eukaryotic translation initiation factor 5B (Homo sapiens, UniProt O60841)
T2 sequence (O60841 whole entry): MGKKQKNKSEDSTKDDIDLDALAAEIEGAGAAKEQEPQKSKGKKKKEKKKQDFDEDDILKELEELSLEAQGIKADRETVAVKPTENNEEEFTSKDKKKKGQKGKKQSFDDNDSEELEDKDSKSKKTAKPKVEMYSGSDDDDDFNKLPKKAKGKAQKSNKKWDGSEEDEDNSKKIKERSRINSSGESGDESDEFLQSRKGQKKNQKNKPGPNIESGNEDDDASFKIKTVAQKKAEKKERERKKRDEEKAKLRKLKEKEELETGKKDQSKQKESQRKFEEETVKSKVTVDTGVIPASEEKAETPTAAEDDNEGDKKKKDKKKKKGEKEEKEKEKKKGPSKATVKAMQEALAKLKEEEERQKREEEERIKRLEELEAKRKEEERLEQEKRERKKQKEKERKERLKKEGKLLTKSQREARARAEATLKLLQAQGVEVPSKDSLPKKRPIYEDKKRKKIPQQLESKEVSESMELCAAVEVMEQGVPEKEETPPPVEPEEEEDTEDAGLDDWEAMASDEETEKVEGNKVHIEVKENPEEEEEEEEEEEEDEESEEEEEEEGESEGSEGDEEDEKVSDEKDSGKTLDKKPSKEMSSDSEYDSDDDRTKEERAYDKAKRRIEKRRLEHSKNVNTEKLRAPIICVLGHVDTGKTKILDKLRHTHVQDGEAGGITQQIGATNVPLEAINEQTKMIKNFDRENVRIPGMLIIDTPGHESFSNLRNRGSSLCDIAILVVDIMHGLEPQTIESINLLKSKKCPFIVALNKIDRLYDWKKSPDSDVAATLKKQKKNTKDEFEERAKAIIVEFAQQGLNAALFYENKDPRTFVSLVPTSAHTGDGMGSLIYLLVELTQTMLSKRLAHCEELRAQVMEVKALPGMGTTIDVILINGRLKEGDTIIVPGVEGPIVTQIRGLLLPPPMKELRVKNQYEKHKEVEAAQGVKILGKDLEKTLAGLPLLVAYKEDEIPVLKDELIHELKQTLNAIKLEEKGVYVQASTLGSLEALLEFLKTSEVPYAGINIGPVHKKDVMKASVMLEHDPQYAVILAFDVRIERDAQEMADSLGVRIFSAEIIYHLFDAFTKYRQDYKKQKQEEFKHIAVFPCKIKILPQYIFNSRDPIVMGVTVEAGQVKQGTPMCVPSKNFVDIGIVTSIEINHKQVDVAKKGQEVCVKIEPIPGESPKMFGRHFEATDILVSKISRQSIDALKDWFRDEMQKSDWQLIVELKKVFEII
Note: in the data inactive means no Kd found up to 30 µM.

| Kd [1] | Kd [2] | Kd [3] | Kd [4] | Compound |
| --- | --- | --- | --- | --- |
| > 30 µM (inactive) | > 30 µM (inactive) | > 30 µM (inactive) | > 30 µM (inactive) | CCc1cc2c(cc1N1CCC(N3CCOCC3)CC1)C(C)(C)c1[nH]c3cc(C#N)ccc3c1C2=O [ALECTINIB] |
| > 30 µM (inactive) | > 30 µM (inactive) | > 30 µM (inactive) | > 30 µM (inactive) | Cc1cc(Nc2nc(N[C@@H](C)c3ncc(F)cn3)ncc2Cl)n[nH]1 [AZD-1480] |
| > 30 µM (inactive) | 4.11 µM (active) | > 30 µM (inactive) | > 30 µM (inactive) | COc1cc2nccc(Oc3ccc(NC(=O)C4(C(=O)Nc5ccc(F)cc5)CC4)cc3)c2cc1OC [CABOZANTINIB] |
| > 30 µM (inactive) | > 30 µM (inactive) | > 30 µM (inactive) |  | c1cc(OCCN2CCCCC2)cc(-c2n[nH]c3ccc(-c4nc[nH]n4)cc23)c1 [CC-401] |
| > 30 µM (inactive) | > 30 µM (inactive) | > 30 µM (inactive) | > 30 µM (inactive) | C#Cc1cccc(Nc2ncnc3cc4c(cc23)OCCOCCOCCO4)c1 [ICOTINIB] |
| > 30 µM (inactive) | 1.03 µM | > 30 µM (inactive) | > 30 µM (inactive) | Cc1ccc(C(=O)Nc2ccc(Oc3cc4cnn(C)c4cc3-c3cn[nH]c3)c(F)c2)c(=O)n1-c1ccc(F)cc1 [MERESTINIB] |
| > 30 µM (inactive) | > 30 µM (inactive) | > 30 µM (inactive) | > 30 µM (inactive) | O=C(NOC[C@H](O)CO)c1ccc(F)c(F)c1Nc1ccc(I)cc1F [MIRDAMETINIB] |
| > 30 µM (inactive) | > 30 µM (inactive) | > 30 µM (inactive) | > 30 µM (inactive) | O=C(Nc1ccc(OC(F)(F)F)cc1)c1sccc1NCc1ccnc2ccccc12 [OSI-930] |
| > 30 µM (inactive) | > 30 µM (inactive) | > 30 µM (inactive) | > 30 µM (inactive) | O=C(NC[C@H](O)CO)c1ccncc1Nc1ccc(I)cc1F [PIMASERTIB] |
| > 30 µM (inactive) | > 30 µM (inactive) | > 30 µM (inactive) | > 30 µM (inactive) | Cn1c(=O)c(F)c(Nc2ccc(I)cc2F)c2c(=O)n(C[C@@H](O)CO)cnc21 [TAK-733] |
| > 30 µM (inactive) | > 30 µM (inactive) | > 30 µM (inactive) | > 30 µM (inactive) | O[C@H]1CC[C@H](Nc2ncc3nc(Nc4c(F)cc(F)cc4F)n([C@H]4CCOC4)c3n2)CC1 [TANZISERTIB] |
| > 30 µM (inactive) | > 30 µM (inactive) | > 30 µM (inactive) |  | C[C@@H]1COC(Nc2ccc3ncnc(Nc4ccc(OCc5nccs5)c(Cl)c4)c3c2)=N1 [VARLITINIB] |
|  | > 30 µM (inactive) | > 30 µM (inactive) | > 30 µM (inactive) | CNC(=O)c1cccc(-c2ccc3c(N4CCOC[C@@H]4C)nc(N4CCOC[C@@H]4C)nc3n2)c1 [VISTUSERTIB] |
| > 30 µM (inactive) | > 30 µM (inactive) | > 30 µM (inactive) | > 30 µM (inactive) | NC(=O)c1ccc(N(C(N)=O)c2c(F)cccc2F)nc1-c1ccc(F)cc1F [VX-702] |
| > 30 µM (inactive) | > 30 µM (inactive) | > 30 µM (inactive) | > 30 µM (inactive) | COc1cc2ncnc(Nc3ccc(O)cc3)c2cc1OC [WHI-P131] |

| Compound | Kd [1] | Kd [2] | Kd [3] | Kd [4] |
| --- | --- | --- | --- | --- |
| Cn1cc(-c2[nH]c3cc(NC(=O)[C@H](N)C4CCCCC4)cc4c3c2C=NNC4=O)cn1 | > 30 µM (inactive) | > 30 µM (inactive) | 0.019 µM |  |
| C=CCn1c(=O)c2cnc(Nc3ccc(N4CCN(C)CC4)cc3)nc2n1-c1cccc(C(C)(C)O)n1 [ADAVOSERTIB] | > 30 µM (inactive) |  | > 30 µM (inactive) | > 30 µM (inactive) |
| CC1(COc2ccc3c(c2)ncn3-c2ccc3cccc(N4CCC(N)CC4)c3n2)COC1 [CRENOLANIB] | > 30 µM (inactive) | 0.008 µM (active) | > 30 µM (inactive) | > 30 µM (inactive) |
| CNC(=O)c1ccc(Nc2ncc(C(F)(F)F)c(NCc3nccnc3N(C)S(C)(=O)=O)n2)cc1 [DEFACTINIB] | > 30 µM (inactive) |  | > 30 µM (inactive) |  |
| C[C@]1(O)C[C@@H](c2nc(-c3ccc4ccc(-c5ccccc5)nc4c3)c3c(N)nccn32)C1 [LINSITINIB] | > 30 µM (inactive) |  | > 30 µM (inactive) | > 30 µM (inactive) |
| COc1cc(F)c(F)c(Nc2ccc(I)cc2F)c1NS(=O)(=O)C1(C[C@H](O)CO)CC1 [REFAMETINIB] | > 30 µM (inactive) | > 30 µM (inactive) | > 30 µM (inactive) | > 30 µM (inactive) |
| COCCN1CCN(Cc2ccc(-c3n[nH]c4c3C(=O)c3c(NC(=O)NN5CCOCC5)cccc3-4)cc2)CC1 [RGB-286638] | > 30 µM (inactive) | > 30 µM (inactive) | > 30 µM (inactive) | > 30 µM (inactive) |

Source: ChEMBL document CHEMBL3991601, “The target landscape of clinical kinase drugs” (Science, 2017)
